Reference: US20140303164A1, “THERAPEUTIC COMPOUNDS” (Gilead Sciences, Inc., priority 2013, published 2014)

How the values were obtained:
[1] = tested on: HIV-IIIb; assay: Test A: Antiviral Assay in MT4 Cells; assay type: cell-based, HIV-1; details: Human immunodeficiency virus 1, IIIB, MT4, 120 h; for inhibition at 0.2 µM: read-out: % inhibition at 0.2 μM; for inhibition at 2 µM: read-out: % inhibition at 2 μM
Procedure: Test A: Antiviral Assay in MT4 Cells
(§1) MT-4 cells were next mixed with HIV-IIIb at an m.o.i of 0.003 for 1 hour, after which time 35 μL of virus/cell mixture (2000 cells) was immediately added to each well containing 40 μL of diluted compound. The plates were then incubated at 37° C. for 5 days. […] Cell lysis was carried out by incubating at room temperature for 10 min and then chemiluminescence was read.

[2] = Test B: Cytotoxicity Assay; assay type: cell-based; details: human, uninfected MT-4 cells, same protocol as Test A
Procedure: as §1
Test B: Cytotoxicity Assay
Compound cytotoxicity and the corresponding CC50 values was determined using the same protocol as described in the antiviral assay (Test A) except that uninfected cells were used.

Structure (SMILES) | inhibition at 0.2 µM [1] | inhibition at 2 µM [1] | CC50 at 5 days [2]
Cn1nc(NS(C)(=O)=O)c2c(Cl)ccc(-c3ccc(C#CC(C)(C)O)nc3[C@H](Cc3cc(F)cc(F)c3)NC(=O)Cc3c[nH]c4ccc(F)cc34)c21 [Compound 193, (S)—N-(1-(3-(4 chloro-1-methyl-3-(methylsulfonamido)-1H-indazol-7-yl)-6-(3-hydroxy-3-methylbut-1-yn-1-yl)pyridin-2-yl)-2-(3,5-difluorophenyl)ethyl)-2-(5-fluoro-1H-indol-3-yl)acetamide] | 92% | 92% | 23.1 µM
Cn1nc(NS(C)(=O)=O)c2c(Cl)ccc(-c3ccc(C#CC(C)(C)O)nc3[C@H](Cc3cccc(F)c3)NC(=O)Cn3nc(C(F)F)c4c3C(F)(F)[C@@H]3C[C@H]43)c21 [Compound 188, N—((S)-1-(3-(4-chloro-1-methyl-3-(methylsulfonamido)-1H-indazol-7-yl)-6-(3-hydroxy-3-methylbut-1-yn-1-yl)pyridin-2-yl)-2-(3-fluorophenyl)ethyl)-2-((3b-S,4aR)-3-(difluoromethyl)-5,5-difluoro-3b,4,4a,5-tetrahydro-1H-cyclopropa[3,4]cyclopenta[1,2-c]pyrazol-1-yl)acetamide] | 92% | 92% | 26.3 µM
CNC(=O)c1nn(CC(=O)N[C@@H](Cc2cc(F)cc(F)c2)c2nc(C#CC(C)(C)O)ccc2-c2ccc(Cl)c3c(NS(C)(=O)=O)nn(C)c23)c2c1[C@H]1C[C@H]1C2(F)F [Compound 165, (3bS,4aR)-1-(2-(((S)-1-(3-(4-chloro-1-methyl-3-(methylsulfonamido)-1H-indazol-7-yl)-6-(3-hydroxy-3-methylbut-1-yn-1-yl)pyridin-2-yl)-2-(3,5-difluorophenyl)ethyl)amino)-2-oxoethyl)-5,5-difluoro-N-methyl-3b,4,4a,5-tetrahydro-1H-cyclopropa[3,4]cyclopenta[1,2-c]pyrazole-3-carboxamide] | 72% | 72% | 5.46 µM
Cn1nc(NS(=O)(=O)c2cn[nH]c2)c2cccc(-c3ccc(C#CC(C)(C)O)nc3[C@H](Cc3cc(F)cc(F)c3)NC(=O)Cn3nc(C(F)(F)F)c4c3C(F)(F)[C@@H]3C[C@H]43)c21 [Compound 49, 2-((3bS,4aR)-5,5-difluoro-3-(trifluoromethyl)-3b,4,4a,5-tetrahydro-1H-cyclopropa[3,4]cyclopenta[1,2-c]pyrazol-1-yl)-N—((S)-2-(3,5-difluorophenyl)-1-(6-(3-hydroxy-3-methylbut-1-yn-1-yl)-3-(1-methyl-3-(1H-pyrazole-4-sulfonamido)-1H-indazol-7-yl)pyridin-2-yl)ethyl)acetamide] | 87% | 87% | 24 µM
Cn1nc(NS(C)(=O)=O)c2c(Cl)ccc(-c3ccc(C#CC(C)(O)CNC(=O)OC(C)(C)C)nc3[C@H](Cc3cc(F)cc(F)c3)NC(=O)Cn3nc(C(F)(F)F)c4c3C(F)(F)[C@@H]3C[C@H]43)c21 (stereo partly drawn) [Compound 184, tert-butyl (4-(5-(4-chloro-1-methyl-3-(methylsulfonamido)-1H-indazol-7-yl)-6-((S)-1-(2-((3bS,4aR)-5,5-difluoro-3-(trifluoromethyl)-3b,4,4a,5-tetrahydro-1H-cyclopropa[3,4]cyclopenta[1,2-c]pyrazol-1-yl)acetamido)-2-(3,5-difluorophenyl)ethyl)pyridin-2-yl)-2-hydroxy-2-methylbut-3-yn-1-yl)carbamate] | 90% | 90% | 7.69 µM
CC(C)(O)C#Cc1ccc(-c2cccc3c(NS(C)(=O)=O)noc23)c([C@H](Cc2cc(F)cc(F)c2)NC(=O)Cn2nc(C(F)(F)F)c3c2C(F)(F)[C@@H]2C[C@H]32)n1 [Compound 39C, 2-((3bS,4aR)-5,5-difluoro-3-(trifluoromethyl)-3b,4,4a,5-tetrahydro-1H-cyclopropa[3,4]cyclopenta[1,2-c]pyrazol-1-yl)-N—((S)-2-(3,5-difluorophenyl)-1-(6-(3-hydroxy-3-methylbut-1-yn-1-yl)-3-(3-(methylsulfonamido)benzo[d]isoxazol-7-yl)pyridin-2-yl)ethyl)acetamide] | 7% | 91% | 26.5 µM
CN1CCN(S(=O)(=O)Nc2nn(C)c3c(-c4ccc(C#CC(C)(C)O)nc4[C@H](Cc4cc(F)cc(F)c4)NC(=O)Cn4nc(C(F)(F)F)c5c4C(F)(F)[C@@H]4C[C@H]54)cccc23)CC1 [Compound 56F, 2-((3bS,4aR)-5,5-difluoro-3-(trifluoromethyl)-3b,4,4a,5-tetrahydro-1H-cyclopropa[3,4]cyclopenta[1,2-c]pyrazol-1-yl)-N—((S)-2-(3,5-difluorophenyl)-1-(6-(3-hydroxy-3-methylbut-1-yn-1-yl)-3-(1-methyl-3-(4-methylpiperazine-1-sulfonamido)-1H-indazol-7-yl)pyridin-2-yl)ethyl)acetamide] | 97% | 97% | 19 µM
CC(C)(O)C#Cc1ccc(-c2ccc(Cl)c(C(N)=O)c2)c([C@H](Cc2cc(F)cc(F)c2)NC(=O)Cn2nc(C(F)(F)F)c3c2C(F)(F)[C@@H]2C[C@H]32)n1 [Compound 80, 2-chloro-5-(2-((S)-1-(2-((3bS,4aR)-5,5-difluoro-3-(trifluoromethyl)-3b,4,4a,5-tetrahydro-1H-cyclopropa[3,4]cyclopenta[1,2-c]pyrazol-1-yl)acetamido)-2-(3,5-difluorophenyl)ethyl)-6-(3-hydroxy-3-methylbut-1-yn-1-yl)pyridin-3-yl)benzamide] | 96% | 100% | 8.58 µM
Cc1ccc(-c2ccc(C#CC(C)(C)O)nc2[C@H](Cc2cc(F)cc(F)c2)NC(=O)Cn2nc(C(F)F)c3c2C(F)(F)[C@@H]2C[C@H]32)c2c1c(N)nn2C [Compound 58G, N—((S)-1-(3-(3-amino-1,4-dimethyl-1H-indazol-7-yl)-6-(3-hydroxy-3-methylbut-1-yn-1-yl)pyridin-2-yl)-2-(3,5-difluorophenyl)ethyl)-2-((3b-S,4aR)-3-(difluoromethyl)-5,5-difluoro-3b,4,4a,5-tetrahydro-1H-cyclopropa[3,4]cyclopenta[1,2-c]pyrazol-1-yl)acetamide] | 95% | 95% | 8.44 µM
COC(=O)Nc1nn(C)c2c(-c3ccc(C#CC(C)(C)O)nc3[C@H](Cc3cc(F)cc(F)c3)NC(=O)Cn3nc(C(F)F)c4c3C(F)(F)[C@@H]3C[C@H]43)ccc(Cl)c12 [Compound 90D, methyl (4-chloro-7-(2-((S)-1-(2-((3b-S,4aR)-3-(difluoromethyl)-5,5-difluoro-3b,4,4a,5-tetrahydro-1H-cyclopropa[3,4]cyclopenta[1,2-c]pyrazol-1-yl)acetamido)-2-(3,5-difluorophenyl)ethyl)-6-(3-hydroxy-3-methylbut-1-yn-1-yl)pyridin-3-yl)-1-methyl-1H-indazol-3-yl)carbamate] | 97% | 97% | 7.62 µM
C[C@H](O)C(=O)Nc1nn(C)c2c(-c3ccc(C#CC(C)(C)O)nc3[C@H](Cc3cc(F)cc(F)c3)NC(=O)Cn3nc(C(F)F)c4c3C(F)(F)[C@@H]3C[C@H]43)ccc(Cl)c12 [Compound 103, (S)—N-(4-chloro-7-(2-((S)-1-(2-((3bS,4aR)-3-(difluoromethyl)-5,5-difluoro-3b,4,4a,5-tetrahydro-1H-cyclopropa[3,4]cyclopenta[1,2-c]pyrazol-1-yl)acetamido)-2-(3,5-difluorophenyl)ethyl)-6-(3-hydroxy-3-methylbut-1-yn-1-yl)pyridin-3-yl)-1-methyl-1H-indazol-3-yl)-2-hydroxypropanamide] | 100% | 100% | 6.79 µM
Cn1nc(NS(C)(=O)=O)c2c(Cl)ccc(-c3ccc(C#CC(C)(O)CF)nc3[C@H](Cc3cc(F)cc(F)c3)NC(=O)Cn3nc(C(F)F)c4c3C(F)(F)[C@@H]3C[C@H]43)c21 (stereo partly drawn) [Compound 144, N-((1S)-1-(3-(4-chloro-1-methyl-3-(methylsulfonamido)-1H-indazol-7-yl)-6-(4-fluoro-3-hydroxy-3-methylbut-1-yn-1-yl)pyridin-2-yl)-2-(3,5-difluorophenyl)ethyl)-2-((3b-S,4aR)-3-(difluoromethyl)-5,5-difluoro-3b,4,4a,5-tetrahydro-1H-cyclopropa[3,4]cyclopenta[1,2-c]pyrazol-1-yl)acetamide] | 95% | 95% | 16.2 µM
Cn1nc(NS(C)(=O)=O)c2c(Cl)ccc(-c3cc(-c4ccccc4)cnc3[C@H](Cc3cc(F)cc(F)c3)NC(=O)Cn3nc(C(F)F)c4c3C(F)(F)[C@@H]3C[C@H]43)c21 [Compound 177D, N—((S)-1-(3-(4-chloro-1-methyl-3-(methylsulfonamido)-1H-indazol-7-yl)-5-phenylpyridin-2-yl)-2-(3,5-difluorophenyl)ethyl)-2-((3b-S,4aR)-3-(difluoromethyl)-5,5-difluoro-3b,4,4a,5-tetrahydro-1H-cyclopropa[3,4]cyclopenta[1,2-c]pyrazol-1-yl)acetamide] | 100% | 100% | > 53.2 µM
Cn1nc(NS(C)(=O)=O)c2c(Cl)ccc(-c3ccc(C#CC(C)(C)O)nc3[C@H](Cc3cc(F)cc(F)c3)NC(=O)Cn3nc(C(F)(F)F)c4c3CCCC4)c21 [Compound 124, (S)—N-(1-(3-(4 chloro-1-methyl-3-(methylsulfonamido)-1H-indazol-7-yl)-6-(3-hydroxy-3-methylbut-1-yn-1-yl)pyridin-2-yl)-2-(3,5-difluorophenyl)ethyl)-2-(3-(trifluoromethyl)-4,5,6,7-tetrahydro-1H-indazol-1-yl)acetamide] | 97% | 97% | 9.14 µM
